Reference: the RepoRT retention time repository (doi:10.1021/acs.analchem.2c02893)

Test: RP, Thermo Scientific Acclaim RSLC 120 C18, 100 × 2.1 mm, 2.2 µm, 30 °C, 0.2 mL/min, estimated dead time 1.1 min; A: 90% water + 10% methanol + 0.01% formic acid + 5 mM ammonium formate, pH 3.61; B: methanol + 0.01% formic acid + 5 mM ammonium formate, pH 3.61; gradient (min/%B) 0/1 1/1 2/39 13/99.9 15/99.9 15.1/1 20.1/1
Settings: stereoisomer not certain

SMILES	LC retention time
c1ccc2[nH]c(-c3cscn3)nc2c1 [Thiabendazole]	6.15 min
CN1CCC23c4c5ccc(OC6OC(C(=O)O)C(O)C(O)C6O)c4OC2C(O)C=CC3C1C5 [Morphine-3-beta-D-glucuronide]	1.63 min
CCCCNC(=O)NS(=O)(=O)c1ccc(N)cc1 [Carbutamide]	5.36 min
CCNC(C)Cc1ccc2c(c1)OCO2 (stereo not drawn) [MDEA]	4.39 min
CC#CCn1c(N2CCCC(N)C2)nc2c1c(=O)n(Cc1nc(C)c3ccccc3n1)c(=O)n2C (stereo not drawn) [Linagliptin]	6.01 min
c1ccc2sc(SN3CCOCC3)nc2c1 [2-Morpholinothiobenzothiazole]	9.85 min
CN1C(=O)CN=C(c2ccccc2Cl)c2cc(Cl)ccc21 [Diclazepam]	9.19 min
CCOP(=S)(OCC)SCSCC [Phorate]	11.4 min
CCCCCn1cc(C(=O)c2ccc(OC)c3ccccc23)c2ccccc21 [JWH-081]	12.7 min
CC(C)(O)c1ccccc1CCC(SCC1(CC(=O)O)CC1)c1cccc(C=Cc2ccc3ccc(Cl)cc3n2)c1 (stereo not drawn) [Montelukast]	13.4 min
COc1cc(CCN)cc(OC)c1OC [Mescaline]	3.88 min
CCOCCc1ccc(OCCNc2ncnc(CC)c2Cl)c(C)c1C [Pyrimidifen]	12.5 min
CC(C)=NOCCOC(=O)C(C)Oc1ccc(Oc2cnc3cc(Cl)ccc3n2)cc1 (stereo not drawn) [Propaquizafop]	12.3 min
Cn1c(=O)c2c(ncn2CCO)n(C)c1=O [Etofylline]	4.09 min
CCCC1CC(C(=O)NC(C(C)O)C2OC(SC)C(O)C(O)C2O)N(C)C1 (stereo not drawn) [Lincomycin]	4.08 min
CCOP(=S)(OCC)OP(=S)(OCC)OCC [Sulfotepp]	10.8 min
CC(C(=O)c1ccccc1)N1CCCC1 (stereo not drawn) [PPP- alpha]	4.01 min
COP(=O)(OC)OC1=C(Cl)C2CC=CC12 (stereo not drawn) [Heptenophos]	8.49 min
CCc1cccc(C)c1NC(=O)CS(=O)(=O)O	5.24 min
CC(=O)OCC(=O)C1(O)CCC2C3CCC4=CC(=O)CCC4(C)C3C(O)CC21C (stereo not drawn) [Hydrocortisone 21-acetate]	8.8 min
CC(=O)C1(O)CCC2C3CCC4=CC(=O)CCC4(C)C3CCC21C (stereo not drawn) [17alpha-Hydroxyprogesterone]	10 min

SMILES	LC retention time
Cc1cccc(Nc2ccccc2C(=O)O)c1C [Mefenamic acid]	11.6 min
CC1CC2C3CC(F)C4=CC(=O)C=CC4(C)C3(F)C(O)CC2(C)C1(O)C(=O)CO (stereo not drawn) [Flumethasone]	8.28 min
CCc1cccc(C)c1N(C(=O)CCl)C(C)COC (stereo not drawn) [Metolachlor]	10.3 min
CCCCCn1cc(C(=O)c2ccc(Br)c3ccccc23)c2ccccc21 [JWH-387]	13.4 min
CC(=O)Nc1ccc(OC(=O)c2ccccc2OC(C)=O)cc1 [Benorilate]	7.41 min
Nc1ccc(S(=O)(=O)O)c(N)c1 [2,4-Diaminobenzenesulfonic acid]	1.36 min
Cc1nnc2n1-c1ccc(Cl)cc1C(c1ccccc1Cl)=NC2 [Triazolam]	8.05 min
O=c1[nH]c2ccccc2s1 [Benzothiazole -2-OH]	6.53 min
COC(=O)NC(C(=O)NC(Cc1ccccc1)C(O)CN(Cc1ccc(-c2ccccn2)cc1)NC(=O)C(NC(=O)OC)C(C)(C)C)C(C)(C)C (stereo not drawn) [Atazanavir]	10.9 min
CN1CCC23c4c5ccc(OCCN6CCOCC6)c4OC2C(O)C=CC3C1C5 (stereo not drawn) [Pholcodine]	2.73 min
COC(=O)c1ccccc1S(=O)(=O)NC(=O)N(C)c1nc(C)nc(OC)n1 [Tribenuron-methyl]	7.94 min
CC(C)c1nc(N(C)S(C)(=O)=O)nc(-c2ccc(F)cc2)c1C=CC(O)CC(O)CC(=O)O (stereo not drawn) [Rosuvastatin]	8.2 min
CC(N)Cc1c2ccoc2c(Br)c2ccoc12 (stereo not drawn) [Bromodragonfly]	7.41 min
O=C(NC(=O)c1c(F)cccc1F)Nc1cc(Cl)c(OC(F)(F)C(F)C(F)(F)F)c(Cl)c1F (stereo not drawn) [Noviflumuron]	12.7 min
CCCCCn1cc(C(=O)c2cccc3ccccc23)cc1-c1ccccc1C [JWH-370]	13.4 min
c1ccc2sc(N3CCOCC3)nc2c1 [2-(4-Morpholinyl)benzothiazole]	8.5 min
c1ccc(C(CCN2CCCCC2)c2ccccc2)cc1 [Fenpiprane]	6.82 min
CN(C)C(=O)Oc1cc(OC(=O)N(C)C)cc(C(O)CNC(C)(C)C)c1 (stereo not drawn) [Bambuterol]	5.16 min
COc1ccc(CNc2nc(N3CCCC3CO)ncc2C(=O)NCc2ncccn2)cc1Cl (stereo not drawn) [Avanafil]	8.76 min
CCOP(=S)(Oc1ccc([N+](=O)[O-])cc1)c1ccccc1 (stereo not drawn) [EPN]	11.7 min
Oc1ccc2ccccc2c1N=Nc1ccccc1 [Sudan I]	13.6 min

SMILES	LC retention time
CN1CCCCC1Cn1cc(C(=O)C23CC4CC(CC(C4)C2)C3)c2ccccc21 (stereo not drawn) [AM-1248]	9.94 min
C=C(C)C1CCC(C)=CC1c1c(O)cc(CCCCC)cc1O (stereo not drawn) [Cannabidiol]	12.7 min
COC(=O)C(NC(=O)c1nn(CCCCCF)c2ccccc12)C(C)(C)C (stereo not drawn) [ADB-5F]	11 min
O=C(CCCN1CCC(n2c(=O)[nH]c3ccccc32)CC1)c1ccc(F)cc1 [Benperidol]	5.96 min
CCCCc1c(C)nc(NCC)nc1OS(=O)(=O)N(C)C [Bupirimate]	10.5 min
COc1ccc2c(c1OC)C(=O)OC2C1c2c(cc3c(c2OC)OCO3)CCN1C (stereo not drawn) [Noscapine]	6.96 min
CC1CC2C(C(O)CC3(C)C2CCC3(O)C(=O)CO)C2(C)C=CC(=O)C=C12 (stereo not drawn) [Prednisolone-Methyl]	8.75 min
N#Cc1c[nH]cc1-c1cccc2c1OC(F)(F)O2 [Fludioxonil]	9.48 min
CCC1C2CC3C4N(C)c5ccccc5C45CC(C2C5O)N3C1O (stereo not drawn) [Ajmaline]	5.19 min
Clc1ccc2c(c1)C(N1CCNCC1)=Nc1ccccc1O2 [Amoxapine]	7.64 min
Cc1onc(-c2ccccc2)c1-c1ccc(S(N)(=O)=O)cc1 [Valdecoxib]	7.37 min
CC12CCC(=O)C=C1CCC1C2C(=O)CC2(C)C1CCC2(O)C(=O)CO (stereo not drawn) [Cortisone E  (4-Pregnene-17.21-diol-3.11.20-trione)]	7.41 min
O=P1(N(CCCl)CCCl)NCCCO1 (stereo not drawn) [Cyclophosphamide]	6.24 min
COC(=O)Nc1cccc(OC(=O)Nc2cccc(C)c2)c1 [Phenmedipham]	8.75 min
CCNc1nc(NCC)nc(SC)n1 [Simetryn]	8.14 min
COc1cc2nc(N3CCN(C(=O)C4CCCO4)CC3)nc(N)c2cc1OC (stereo not drawn) [Terazosin]	4.92 min
CCOc1ccccc1OC(c1ccccc1)C1CNCCO1 (stereo not drawn) [Reboxetine]	7.28 min
OCc1nnc2n1-c1ccc(Cl)cc1C(c1ccccc1Cl)=NC2 [Triazolam-1-Hydroxymethyl (alpha-Hydroxy-Triazolam)]	7.65 min
CCC(C)(CC)c1cc(NC(=O)c2c(OC)cccc2OC)on1 [Isoxaben]	9.42 min
COc1cc(C=C2CCCC(=Cc3ccc(O)c(OC)c3)C2=O)ccc1O [Cyclovalone]	9.59 min
COP(N)(=S)Oc1ccccc1C(=O)OC(C)C (stereo not drawn) [Isocarbophos]	8.32 min

SMILES	LC retention time
CCCSP(=S)(OCC)Oc1ccc(Cl)cc1Cl (stereo not drawn) [Tokuthion (Prothiophos)]	13.6 min
O=C(c1cccc2ccccc12)c1cn(CC2CCCCC2)c2ccccc12 [NE-CHMIMO]	13 min
CCc1nn(C)c(C(=O)NCc2ccc(Oc3ccc(C)cc3)cc2)c1Cl [Tolfenpyrad]	12.4 min
CC(C)(C)C(NC(=O)c1cn(CC2CCCCC2)c2ccccc12)C(N)=O (stereo not drawn) [ADB-CHMICA]	11.7 min
CCCc1nn(C)c2c(=O)[nH]c(-c3cc(S(=O)(=O)N4CCN(CCO)CC4)ccc3OCC)nc12 [Sildenafil-Hydroxyhomo]	7.83 min
Cc1ccc(C(=CCN2CCCC2)c2cccc(C=CC(=O)O)n2)cc1 [Acrivastine]	6.66 min
CCNc1nc(NC(C)C)nc(SC)n1 [Ametryn]	9.16 min
COc1cccc(C(=O)CCNC(C)C(O)c2ccccc2)c1 (stereo not drawn) [Oxyfedrine]	6.14 min
Clc1ccc(C(Cn2ccnc2)OCc2ccc(Sc3ccccc3)cc2)c(Cl)c1 (stereo not drawn) [Fenticonazole]	13.4 min
CCCN(CCC)C(=O)SCC [EPTC]	10.7 min
CC(C)(C)C(NC(=O)c1nn(Cc2ccc(F)cc2)c2ccccc12)C(N)=O (stereo not drawn) [ADB-FUBINACA]	10.3 min
Clc1ccc(CSC(Cn2cncn2)=Nc2ccc(Cl)cc2Cl)cc1 [Imibenconazole]	12.4 min
Cc1nc([N+](=O)[O-])cn1CCO [Metronidazole]	3.58 min
CNC(=O)C=C(C)OP(=O)(OC)OC [Monocrotophos]	4.36 min
O=C1CC2(CCCCC2)CN1 [3,3-pentamethylene-4-butyrolactam]	6.64 min
CCCCC1C(=O)N(c2ccccc2)N(c2ccccc2)C1=O [Phenylbutazone]	8.98 min
COc1nc(C)nc(N)n1 [2-Methyl-4-amino-6-methoxy-s-triazine]	3.71 min
CCC(CC)(CNC(=O)CCCO)c1cccc(OC)c1 [Embutramide]	8.98 min
O=C(O)c1cc(Oc2ccc(C(F)(F)F)cc2Cl)ccc1[N+](=O)[O-] [Acifluorfen]	8.95 min
CCC(c1cccc(O)c1)C(C)CNC (stereo not drawn) [Tapentadol-N-Desmethyl]	5.14 min
